Where two headings read alike, the source gives them in different places.
Assays:
[1] = system: Corynebacterium glutamicum diaminopimelate dehydrogenase (DDH), SEQ ID NO: 6; settings: Wehrmann, et al., 1998; read-out: km value towards ammonium; cited from earlier work
[2] = molecular target: T1, Corynebacterium glutamicum glucose 6-phosphate dehydrogenase (G6PDH, zwf), variant A243T (Corynebacterium glutamicum, UniProt Q8NQ63); experiment: Kinetic characterization of A243T-variant of G6P dehydrogenase (Michaelis-Menten constants and inhibition by metabolites); format: biochemical; settings: for Km: A243T mutant, cell extracts from cells grown on minimal medium with glucose, 30° C., pH 7.8
T1 construct: grown on glucose minimal medium
Method: (§1) In the exponential growth phase, cells were harvested by centrifugation (5 min, 9800×g, Biofuge stratos, Heraeus, Hanau, Germany), washed once with disruption buffer and finally suspended to 0.25 g CWW per mL. Disruption was performed by sonication (MSE soniprep 150, Sanyo Europe, Munich, Germany) in a ice-water-bath with five 15 sec pulses at 20 microns, or mechanically. To this end, cell suspension was aliquoted in 750 μl amounts in 2 mL Eppendorf tubes containing glass beads. Disruption was performed in a ribolyser (MM301, Retsch, Haan, Germany) at 30 Hz (2×5 min; 5 minutes break in between). Crude cell extracts were obtained by centrifugation for 10 minutes at 13000 rpm (Biofuge fresco, Heraeus, Hanau, Germany) for ribolyser disruption or 2×30 min at 8500 rpm (Biofuge stratos, Heraeus, Hanau, Germany) for disruption by sonication. Protein content was determined by the method of Bradford (Bradford, 1976) with a reagent solution from BioRad (Quick Start Bradford Dye, BioRad, Hercules, USA) and a BSA protein standard.
(§2) All measurements were performed as triplicates in a total volume of 1 mL by online monitoring of the change in absorbance in a photospectrometer (Specord 40, Analytik Jena, Jena, Germany or Helios alpha, Thermo Scientific, Waltham, USA). Negative controls were carried out without substrate or cell extract, respectively. Activities are given as specific enzyme activity [U mg^−1] with 1 U=1 μmol min^−1 at 30° C. and calculated from the change in absorbance [A min^−1] and a specific extinction coefficient of ε340=6.22 L mmol^−1 cm^−1 for NAD(P)H. As a general procedure, a master mix without substrate and cell extract was prepared from the stock solutions for the reaction buffer, MgCl2, Co-factors (NADP, NAD, NADH, ADP, TPP, CoA) and coupling enzymes (LDH, G6PDH, PGI, ribose 5-phosphate isomerase (RPI), ribulose 5-phosphate epimerase (RPE), TPI/GDH) and incubated for 10 min at 30° C. Substrate solution and cell extract were provided in 1.5 mL polystyrene cuvettes (Plastibrand, Wertheim, Germany). The reaction was started by quick addition of the master mix.
Cell disruption was performed in a buffer containing 100 mM Tris/HCl (pH 7.5), 10 mM MgCl2 and 0.75 mM DTT. DTT was prepared freshly as 100 mM stock solution and added to the cell suspension before disruption. Due to instability of the enzyme, the activity was measured immediately after cell disruption. The reaction mix for quantification of the G6P dehydrogenase activity contained 100 mM Tris/HCl (pH 7.8), 200 mM KCl, 1 mM NADP, 10 mM MgCl2, 5 mM G6P and 50 μl cell extract. Michaelis-Menten affinity constants were determined by varying the concentrations of the substrates, G6P or NADP, respectively. To test the influence of effectors on activity, the reaction mix was additionally supplemented with ATP, PEP, FBP or NADPH in varied concentrations.

[3] = molecular target: T2, Corynebacterium glutamicum glucose 6-phosphate dehydrogenase (G6PDH, zwf), wild type (Corynebacterium glutamicum, UniProt Q8NQ63); experiment: Kinetic characterization of wild type G6P dehydrogenase (Michaelis-Menten constants and inhibition by metabolites); format: biochemical; settings: relative to the activity without addition (100%)
T2 sequence (Q8NQ63 1-484): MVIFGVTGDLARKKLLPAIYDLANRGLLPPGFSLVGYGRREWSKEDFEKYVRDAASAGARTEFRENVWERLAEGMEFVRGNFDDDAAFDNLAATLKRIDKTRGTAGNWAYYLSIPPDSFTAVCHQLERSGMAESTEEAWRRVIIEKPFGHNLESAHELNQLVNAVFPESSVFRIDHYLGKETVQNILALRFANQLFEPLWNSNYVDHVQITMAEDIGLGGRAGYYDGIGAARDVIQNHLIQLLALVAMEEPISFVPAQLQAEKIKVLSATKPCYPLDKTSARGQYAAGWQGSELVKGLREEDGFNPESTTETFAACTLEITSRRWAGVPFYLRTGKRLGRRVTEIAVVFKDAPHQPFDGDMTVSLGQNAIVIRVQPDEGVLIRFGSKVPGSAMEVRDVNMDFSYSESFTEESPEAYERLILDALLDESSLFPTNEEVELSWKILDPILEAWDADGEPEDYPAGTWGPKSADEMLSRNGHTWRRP
T2 sequence (Q8NQ62 1-319 partner): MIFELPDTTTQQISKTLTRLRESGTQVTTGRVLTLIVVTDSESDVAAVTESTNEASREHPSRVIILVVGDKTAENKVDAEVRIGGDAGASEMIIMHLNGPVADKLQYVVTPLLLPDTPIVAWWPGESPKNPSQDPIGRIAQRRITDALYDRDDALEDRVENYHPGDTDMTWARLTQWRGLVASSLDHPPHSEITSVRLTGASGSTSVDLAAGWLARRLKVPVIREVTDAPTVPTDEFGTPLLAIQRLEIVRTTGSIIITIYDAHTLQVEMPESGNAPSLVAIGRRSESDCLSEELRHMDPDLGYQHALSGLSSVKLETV
Method: as §1
as §2, with “Negative controls were carried out without substrate or cell extract, respectively.” left out, “Substrate solution and cell extract were provided in 1.5 mL polystyrene cuvettes (Plastibrand, Wertheim, Germany). The reaction was started by quick addition of the master mix.” left out
Cell disruption was performed in a buffer containing 100 mM Tris/HCl (pH 7.5), 10 mM MgCl2 and 0.75 mM DTT. […] Due to instability of the enzyme, the activity was measured immediately after cell disruption. […]

Question: For N [ammonium], which Km [1] is on record?
Answer: 34000 µM

Question: With O=P(O)(O)OC[C@H]1OC(O)[C@H](O)[C@@H](O)[C@@H]1O (stereo partly shown) [G6P, Glucose 6-phosphate] as the molecule, how does the Km ([2]; read-out: KM, G6P) read?
Answer: 481 ± 31 µM

Question: Which results are given for O=P(O)(O)OC[C@H]1OC(O)(COP(=O)(O)O)[C@@H](O)[C@@H]1O (stereo partly shown) [FBP, Fructose 1,6-bisphosphate]?
Answer: inhibition at 5000 µM ([3]; 5 mM FBP, read-out: Inhibition by metabolites (Remaining Activity), FBP): 84.4%; Inhibition by metabolites (Remaining Activity), FBP ([2]; 5 mM FBP, relative to the activity without addition (100%)): 87.0 ± 0.1%

Question: Which inhibition at 5000 µM ([3]; 5 mM PEP, read-out: Inhibition by metabolites (Remaining Activity), PEP) does the source give for C=C(OP(=O)(O)O)C(=O)O [PEP, Phosphoenolpyruvate] here?
Answer: 62.6 ± 0.1%

Question: And the “Inhibition by metabolites (Remaining Activity), PEP” value ([2]; 5 mM PEP, relative to the activity without addition (100%))?
Answer: 72.5 ± 0.1%

Question: For Nc1ncnc2c1ncn2[C@@H]1O[C@H](COP(=O)(O)OP(=O)(O)OP(=O)(O)O)[C@@H](O)[C@H]1O [ATP, Adenosine triphosphate], which percent remaining activity at 5000 µM ([3]; 5 mM ATP) is on record?
Answer: 68.8 ± 0.1%

Question: What about the “Inhibition by metabolites (Remaining Activity), ATP” value ([2]; 5 mM ATP, relative to the activity without addition (100%)) of the same molecule?
Answer: 86.0 ± 0.2%

Question: With NC(=O)C1=CN([C@@H]2O[C@H](COP(=O)(O)OP(=O)(O)OC[C@H]3O[C@@H](n4cnc5c(N)ncnc54)[C@H](OP(=O)(O)O)[C@@H]3O)[C@@H](O)[C@H]2O)C=CC1 [NADPH, Nicotinamide adenine dinucleotide phosphate] as the molecule, how does the “inhibition by NADPH” value ([2]; A243T compared with wild type enzyme, FIG. 10B) read?
Answer: No significant difference

Question: For NC(=O)c1ccc[n+]([C@@H]2O[C@H](COP(=O)(O)OP(=O)(O)OC[C@H]3O[C@@H](n4cnc5c(N)ncnc54)[C@H](OP(=O)(O)O)[C@@H]3O)[C@@H](O)[C@H]2O)c1 [NADP, Nicotinamide adenine dinucleotide phosphate], which Km ([2]; read-out: KM, NADP) is on record?
Answer: 75 ± 4 µM

Source: US9169502B2, “Method of producing L-lysine using a Corynebacterium glutamicum microorganism” (Paik Kwang Industrial Co., Ltd., priority 2010, dated 2015)
